This note sets out measurements from patent US10668027B1, “Method of treating Acanthamoeba infection using allopurinol” (University of South Florida, priority 2014, dated 2020).

A word on the Km: it is the substrate concentration at which the rate is half of its maximum. The Ki is the dissociation constant of the complex between target and ligand, obtained from inhibition or displacement. One may read the IC50 as the concentration at which inhibition is half-maximal.

The target in test [1] is T1, N. fowleri Nfa-1 hemerythrin (Naegleria fowleri, UniProt Q9NH76).
T1 construct: made in house; host or cells: E. coli
Description: Initial-rate enzyme kinetics of Nfa-1 hemerythrin using NADH or NADPH as substrates. To be noted: substrate 10-200 μM, ferricyanide 200 μM, 40 sec at 23° C., Michaelis-Menten analysis; for Km: read-out: apparent Km. Type of test: biochemical. From the text: (§1) The N. fowleri Nfa-1 gene (360 bp, GenBank Accession No. AF230370) was amplified by PCR from genomic N. fowleri DNA using PCR primers that included the Nde1 and Sap1 restriction enzyme sites for subsequent cloning into the Nde1 and Sap1 sites of the bacterial expression vector pTwin1 (forward primer with Nde1 site underlined; ATG start codon is indicated in bold: SEQ ID NO: 1 5′-[…]-3′, reverse primer with Sap1 site underlined: SEQ ID NO: 2 5′-[…]-3′), which contained a thiol-inducible intein protease fused to a chitin-binding domain. Recombinant Nfa-1 protein was produced in E. coli and purified by chitin-agarose chromatography followed by cleavage and elution of the purified Nfa-1 protein by 40 mM dithiothreitol (DTT) and subsequent size-exclusion chromatography purification.
(§2) Enzymatic oxidase activity, kinetics and pharmacological drug inhibition assays of recombinant N. fowleri Nfa-1 hemerythrin were determined in vitro using NADH or NADPH as the substrate and electron donor and ferricyanide as electron acceptor. Various drugs and inhibitors specific for xanthine oxidase-like enzymes, NAD(P)H oxidases, or NADH peroxidase were included in the pharmacological inhibition assays.
Enzyme kinetics were determined using NADH or NADPH at 10-200 μM concentration as electron donor and ferricyanide (200 μM) as electron acceptor for initial-rate enzyme kinetics of 40 sec at 23° C.

The target in test [2] is T1, N. fowleri Nfa-1 hemerythrin. Description: biochemical.
From the text: as §1, §2

In test [3] the test system is Naegleria fowleri strain Nf69 (ATCC 30215). The experiment in a line: LDH cytotoxicity assay of N. fowleri amoebae co-cultured with CHO cells. To be noted: ATCC30215, CHO, 13 h, read-out: IC50, protection from N. fowleri cytotoxicity. The protocol: Naegleria fowleri strain Nf69 (ATCC 30215) was cultivated at about 33° C. in modified Nelson's medium (about 1 mM Na2HPO4, about 1 mM KH2PO4, about 2.05 mM NaCl, about 16.2 μM MgSO4, about 27.2 μM CaCl2), about 0.17 g/L DIFCO Liver infusion broth, about 9.4 mM glucose) supplemented with about 10% heat-inactivated fetal bovine serum. For cytotoxicity assays, Chinese hamster ovary (CHO) cells were grown at about 37° C. in DMEM medium supplemented with about 10% fetal bovine serum until cultures reached about 70-80% confluency. Subsequently cultures were infected with N. fowleri cells at a ratio of 1 N. fowleri amoeba per 5-10 CHO cells and co-cultivated overnight for about 13 hours at about 37° C. The cytotoxicity effect of N. fowleri amoebae on CHO cells was measured by an LDH-based cytotoxicity assay that quantifies the release of lactate dehydrogenase (LDH) from dead cells at 490 nm wavelength absorbance for calculation of amoeba-induced cytotoxicity to the mammalian host cells.
Cytotoxicity of Naegleria fowleri amoebae was measured with CHO cells co-cultured with N. fowleri for about 13 hours at about 37° C. using the LDH cytotoxicity assay (infection ratio of 1 amoeba cell per 5-10 CHO cells) as described above.

For test [4], the system named is Acanthamoeba castellani (ATCC strain 50370). The experiment in a line: microbe, parasite or virus in culture. To be noted: Acanthamoeba castellanii, ATCC50370, CHO, 19 h, read-out: IC50, protection against A. castellani cytotoxicity.
Where [5] appears, read: recombinant N. fowleri Nfa-1 oxidase in vitro, read-out: Ki, inhibition of Nfa-1 enzyme activity.

The structures appear in SMILES notation. Where two headings read alike, the source gives them in different places.

T1 sequence (Q9NH76 whole entry): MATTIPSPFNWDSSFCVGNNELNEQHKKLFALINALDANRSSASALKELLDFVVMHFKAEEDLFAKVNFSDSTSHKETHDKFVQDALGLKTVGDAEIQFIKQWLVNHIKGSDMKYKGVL

As for `NC(=O)C1=CN([C@@H]2O[C@H](COP(=O)(O)OP(=O)(O)OC[C@H]3O[C@@H](n4cnc5c(N)ncnc54)[C@H](OP(=O)(O)O)[C@@H]3O)[C@@H](O)[C@H]2O)C=CC1` [NADPH], in test [1], the apparent kat turned out to be 3.3 s⁻¹ and the Km turned out to be 22.3 µM.

Regarding `O=c1[nH]cnc2nc[nH]c12` [hypoxanthine], affinity in test [2] was put at a Ki of 1000 µM. The IC50 in test [3] turned out to be 497 µM.

For `NC(=O)C1=CN([C@@H]2O[C@H](COP(=O)(O)OP(=O)(O)OC[C@H]3O[C@@H](n4cnc5c(N)ncnc54)[C@H](O)[C@@H]3O)[C@@H](O)[C@H]2O)C=CC1` [NADH], in test [1], the apparent kat was determined as 4.4 s⁻¹ and the Km was found to be 64.5 µM.

With `OO` [Formula H2O2, H2O2], the “stimulation of Nfa-1 enzyme activity” value in test [2] (NADH peroxidase activator, FIG. 9) came to 9.7%.

For the compound `O=[N+]([O-])[O-].[Ag+]` [AgNO3], in test [2] (setting [5]), the inhibitory constant (Ki) came out at 345 µM.

`Oc1ncnc2[nH]ncc12` [Allopurinol]: the inhibition constant Ki in test [2] (setting [5]) was 134 µM. For the same compound, the figures for the IC50 in test [3] and in test [4] were 48 µM and 620 µM, respectively.

In turn, `c1ccc2c(c1)[I+]c1ccccc1-2` [DPI, diphenyleneiodonium chloride] had a Ki in test [2] of 19 µM. Besides, in test [3], the IC50 was 49 µM.

With `COc1cc(C(C)=O)ccc1O` [Apocynin], the Ki in test [2] (setting [5]) came out at 17 µM. The half-inhibitory concentration (IC50) is 15 µM in test [3] and 174 µM in test [4].

Regarding `O=C(O)c1cc[c]([Hg][OH])cc1` [pHMB, para-hydroxymercuribenzoate], the affinity in test [2] corresponds to a Ki of 78 µM.
